As a reminder, the IC50 is the concentration that gives 50% inhibition. Read a high IC50 as weaker potency. One may read the inhibition as the share of the control response that was lost under treatment. The low end stands for little suppression, the high end for strong suppression.

Structures are written as SMILES.

The record followed here is ChEMBL document CHEMBL1128103, “Thromboxane modulating agents. 1. Design of 1-[(arylsulfonyl)amino] alkylindole derivatives as dual thromboxane synthase inhibitor/thromboxane receptor antagonists” (Bioorg Med Chem Lett, 1995).

Test [1] addresses T1, Thromboxane A2 receptor (Rattus norvegicus, UniProt P34978).
T1 sequence (P34978 whole entry): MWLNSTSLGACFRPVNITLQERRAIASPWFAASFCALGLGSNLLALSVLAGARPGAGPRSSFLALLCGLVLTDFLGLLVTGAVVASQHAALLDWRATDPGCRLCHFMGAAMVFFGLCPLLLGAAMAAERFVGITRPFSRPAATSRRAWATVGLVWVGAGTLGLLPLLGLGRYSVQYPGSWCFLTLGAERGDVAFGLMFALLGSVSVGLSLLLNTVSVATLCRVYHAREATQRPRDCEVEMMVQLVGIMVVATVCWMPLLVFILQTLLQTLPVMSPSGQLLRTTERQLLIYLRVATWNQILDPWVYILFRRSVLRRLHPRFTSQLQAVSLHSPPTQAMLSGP
The experiment in a line: Compound was tested in vitro for thromboxane A2 receptor antagonism by inhibiting contraction of rat aorta induced by the stable thromboxane agonist U-46,619. As to conditions: read-out: pA2 (converted). The format is functional, tissue-based.

Test [2] has as its target T2, Thromboxane-A synthase (Homo sapiens, UniProt P24557).
T2 sequence (P24557 whole entry): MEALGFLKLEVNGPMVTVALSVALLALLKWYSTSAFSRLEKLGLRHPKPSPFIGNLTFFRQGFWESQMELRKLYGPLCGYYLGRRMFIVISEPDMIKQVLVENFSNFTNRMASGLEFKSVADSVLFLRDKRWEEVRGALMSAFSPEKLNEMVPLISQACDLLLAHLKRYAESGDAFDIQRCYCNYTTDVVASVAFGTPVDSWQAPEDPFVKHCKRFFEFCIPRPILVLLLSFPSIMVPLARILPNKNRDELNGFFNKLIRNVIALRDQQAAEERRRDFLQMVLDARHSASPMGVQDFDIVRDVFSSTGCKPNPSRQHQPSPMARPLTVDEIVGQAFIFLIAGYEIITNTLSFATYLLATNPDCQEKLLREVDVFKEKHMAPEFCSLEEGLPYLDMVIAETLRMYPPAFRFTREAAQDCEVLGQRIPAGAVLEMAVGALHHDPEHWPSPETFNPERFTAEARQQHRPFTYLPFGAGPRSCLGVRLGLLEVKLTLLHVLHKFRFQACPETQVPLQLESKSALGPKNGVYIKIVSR
The experiment in a line: Compound was tested for the ability to inhibit human platelets microsomal Thromboxane A2 synthase.

For test [3], the target named is T1, Thromboxane A2 receptor. The experiment in a line: Compound was tested in vitro for Thromboxane A2 receptor antagonism by inhibiting contraction of rat aorta induced by the stable thromboxane agonist U-46,619; […]. The format is functional, tissue-based. The conditions noted are these: read-out: pA2 (converted).
The target in test [4] is T1, Thromboxane A2 receptor. The experiment in a line: Compound was tested in vitro for Thromboxane A2 receptor antagonism by inhibiting contraction of rat aorta induced by the stable thromboxane agonist U-46,619. As to conditions: read-out: pA2 (converted). Format: functional, tissue-based.
Test [5] deals with T3, Thromboxane-A synthase (Homo sapiens) (UniProt P24557).
T3 sequence (whole entry): T2 sequence (P24557 whole entry)
Briefly: Compound was tested for the ability to inhibit human platelets microsomal Thromboxane A2 synthase at 1 uM concentration.

As for `Cc1[nH]c2ccc(CCC(=O)O)cc2c1Cc1ccncc1`, the Kb in test [1] was 60.3 nM. Besides, the midpoint of inhibition in test [2], the IC50, lay at 22 nM.
Turning to `Cc1c(Cn2ccnc2)n(CCCCNS(=O)(=O)c2ccc(F)cc2)c2ccc(C(=O)O)cc12`, the Kb in test [3] is over 1000 nM. This compound had an IC50 in test [2] of 39 nM.
Consider `Cc1c(C)n(CCNS(=O)(=O)c2ccc(F)cc2)c2ccc(CCC(=O)O)cc12`, for which the Kb in test [4] was 2.51 nM.
With `O=C(O)COc1ccc(CCNS(=O)(=O)c2ccccc2)cc1` [SULOTROBAN], in test [4], the Kb was 81.3 nM.
`Cc1c(Cn2ccnc2)c2cc(CCC(=O)O)ccc2n1CCNS(=O)(=O)c1ccc(F)cc1`: the Kb in test [4] is 1.58 nM. The IC50 in test [2] worked out at 39 nM.
Take `O=C(O)CCc1ccc2c(c1)c(Cc1ccncc1)cn2CCNS(=O)(=O)c1ccc(F)cc1`: the inhibition in test [5] came to 42%. In addition, the Kb in test [1] was 7.59 nM.
As to `Cc1c(Cc2ccncc2)c2cc(CCC(=O)O)ccc2n1CCNS(=O)(=O)c1ccc(F)cc1`, in test [4], the Kb is 0.0741 nM. In test [2], this compound gave an IC50 of 78 nM.
As for `Cc1c(Cn2ccnc2)n(CCCNS(=O)(=O)c2ccc(F)cc2)c2ccc(C(=O)O)cc12`, the Kb in test [3] was over 1000 nM. The IC50 in test [2] is 15 nM.
Regarding `Cc1c(Cn2ccnc2)n(CCNS(=O)(=O)c2ccc(F)cc2)c2ccc(CCC(=O)O)cc12`, in test [4], the Kb was 138 nM. In test [2], the midpoint of inhibition, the IC50, lay at 135 nM.
For the compound `Cc1c(Cn2ccnc2)n(CCNS(=O)(=O)c2ccc(F)cc2)c2ccc(C(=O)O)cc12`, in test [3], the Kb was over 1000 nM. It took 20 nM to reach half-maximal inhibition in test [2] (IC50).
For the compound `Cc1c(Cc2cccnc2)c2cc(CCC(=O)O)ccc2n1CCNS(=O)(=O)c1ccc(F)cc1`, the Kb in test [4] is 0.692 nM. This compound yielded an IC50 in test [2] of 61 nM.
